Source: patent US20160089545A1, “METHODS AND APPARATUS FOR DELIVERY OF MOLECULES ACROSS LAYERS OF TISSUE” (EP Technologies LLC, priority 2013, published 2016)
Like-named read-outs stand apart in the source and are kept apart here. Blank lines part the entries; values can stand above or below the compound they belong to.

Description: In this example, a vertical Franz diffusion apparatus (PermeGear Inc, PA) was used for all transport studies. Human skin samples with intact stratum corneum (SC) from back and thigh region were used, which were split thickness (dermatome 250 μm). The skin was kept at −80° C. until the day of treatment. On the day of treatment the skin was thawed to room temperature and kept in a humidified box for 1 hour. The skin was washed with water and pat-dried with paper towels. The skin was cut in to 1″×1″ pieces and was placed between the donor and receiver compartments with temperature maintained at 37±1° C. using water circulator. Effective surface area for transport studies were kept constant at 1.77 cm^2. The receiver compartment was filled with 10 mL of freshly prepared phosphate buffered saline (PBS) (pH 7.4) and donor compartment with 0.5-1.0 mL of permeant solution. One mL samples were withdrawn from the receiver compartment at pre-determined time points and estimated for propofol using high performance liquid chromatography.
In vitro permeation studies were carried out using the experimental setup described above. Drugs reconstituted in water or buffer at 10 mg/mL concentration in the donor compartment was used for transport studies across the human skin, Permeation studies were carried out for a period of 3-6 h and samples were analyzed for using HPLC technique.
In some experiments, the human skin was treated with non-thermal DBD plasma for periods of time up to about 1 min and the following plasma power source parameters were varied: the frequency (Hz) was varied between about 100 and about 3500 Hz, the voltage was varied from about 11 kV to 20 kV, the pulse duration was varied between about 1 and about 10 μs, the duty cycle was varied between about 1 to about 100%, and the time of treatment ranged from between about 0.5 to about 1 minutes. […] Three different runs were carried out, the first in which the plasma generator was operated with a frequency of 2500 Hz, pulse duration of 1 μs, voltage of 15 kV and 100% duty cycle (which corresponds to setting 7100 in FIG. 10), the second with the plasma generator operated with a frequency of 2500 Hz, pulse duration of 5 μs, voltage of 17 kV and 100% duty cycle (which corresponds to setting 7500 in FIG. 10), and the third with the plasma generator operated with frequency of 3500 Hz, pulse duration of 5 μs, voltage of 19 kV and 100% duty cycle (which corresponds to setting 9500 in FIG. 10). A fourth control run was also carried out in which the skin sample was not subjected to plasma treatment before being contacted with the nicotine-containing test formulation.

SMILES: Cn1c(=O)c2c(ncn2C)n(C)c1=O [caffeine]
factor of enhancement of transdermal delivery as compared with the control (human, 4 h, 10 mg/mL, pH 7.4): approximately 7

factor of enhancement of transdermal delivery (human, 4 h, 10 mg/mL, pH 7.4): approximately 2
factor of enhancement of transdermal delivery (human, 4 h, pH 7.4): about 4
SMILES: O=C(O)Cc1ccccc1Nc1c(Cl)cccc1Cl [diclofenac sodium]

SMILES: CN1CCCC1c1cccnc1 (stereo not shown) [nicotine]
factor of enhancement of transdermal delivery as compared with the control (3 hour permeation period, 3500 Hz, pulse duration 5 μs, 19 kV, 100% duty cycle (setting 9500)): approximately 33
